We go through six molecules from patent publication US9782397B2, “Treatment of corneal neovascularization” (IRBM SCIENCE PARK S.P.A., priority 2011, dated 2017).

For data set [1], the system named is CNV. To be noted: in vivo; cited from earlier work.
The subject of data set [2] is corneal neovascularization. Put plainly: Alkali burn (sodium hydroxide caustication) neovascularization model. The class given is in vivo, C57Bl/6 mice. To be noted: for corneal perforation / corneal transparency / incidence of symblepharon and ankyloblepharon / lid anatomy: topical treatment of ocular burns, Examples 4-6. Here is the method:
Prior to pellet implantation or caustication, animals were anesthetized by intraperitoneal injection of ketamine (120 mg/kg) and xylazine (20 mg/kg) before any surgery.
In fact, the Alkali burn model is considered an inflammation-driven model of neovascularisation, whereby a reduction in inflammatory cell influx is associated with clinical improvement.
Mice were anesthetized by intraperitoneal injection of ketamine (120 mg/kg) and xylazine (20 mg/kg) before any surgery. A 2-mm disc of filter paper saturated with 1 N NaOH was placed onto the right cornea of each mouse for 40 seconds, followed by rinsing extensively with phosphate-buffered saline (PBS) for 2 minutes.
(§1) After taking photographs under the slit lamp, five mice per group were sacrificed 7 days after b-FGF micropellet implantation or caustication, and freshly enucleated eyes were prepared into corneal flat mounts. Immunohistochemical staining was performed with FITC-conjugated CD31/PECAM-1 (rat-anti-mouse antibody; 1:100; Santa Cruz Biotechnology, Santa Cruz, Calif.). Images were taken at 40×, 400× and 600× magnification. To quantify the blood vessels, corneal whole-mounts were covered with mounting medium (Vector, Burlingame, Calif.) and examined by an epifluorescent microscope. For toxicity studies, mice were examined at the slit lamp daily. Animals were sacrificed seven days later and eye bulbs were removed, fixed in 4% paraformaldehyde, cross-sectioned and stained with standard hematoxylin-eosin. At least three to five different corneas were examined; representative data are presented.
(§2) Both slit-lamp and fluorescence microscopy pictures were qualitatively compared for the amount of corneal neovascularization. Gross anatomical alterations such as disruption of epithelial layer, inflammatory cell infiltration, or endothelial cell loss were searched in hematoxylin-eosin cross sections.
Male 6- to 8-week-old C57Bl/6 mice were treated to induce neovascularization using sodium hydroxide caustication (see Experimental Methods)
5 mice per group were used. After taking photographs at the slit lamp, mice were sacrificed. Immunohistochemical staining was performed with FITC-conjugated CD31/PECAM-1 to reveal corneal neovessels.
Lanepitant (WO9907681) was dissolved in PBS. It was administered topically to the eye with the following dose regimen after alkali burn induced neovascularization of the cornea: • 0.4 mg/ml, 6 times a day for 4 days, starting on the day of the tissue injury (“Day 0” to “Day 3”). • 1.6 mg/ml, 6 times a day for 4 days, starting on the day of the tissue injury (“Day 0” to “Day 3”). • 6.4 mg/ml, 6 times a day for 4 days, starting on the day of the tissue injury (“Day 0” to “Day 3”). • PBS Control, 6 times a day for 4 days, starting on the day of the tissue injury (“Day 0” to “Day 3”).
Three mice (for a total of 6 eyes) were treated in each experimental group.
On Day 4, After taking photographs at the slit lamp, mice were sacrificed. Immunohistochemical staining was performed with FITC-conjugated CD31/PECAM-1 to reveal corneal neovessels (FIG. 4A). Following alkali burn, neovessels are expected to grow from the periphery towards the center of the cornea. The extent of the neovascularization is then evaluated. Briefly, corneas were excised, fixed and stained with FITC-conjugated CD31/PECAM-1 to reveal corneal neovessels. […] The neovascular area was then calculated by measuring the Neovascular Area Index (NV Index). This was obtained by calculating the ratio of the neovascular area—obtained by joining together the inner tip of the neovessels—and the total surface of the cornea (i.e. the total area of the cornea).
Befetupitant (WO020008232) was dissolved in DMSO (Dimethyl SulfOxyde).

The test system of data set [3] is corneal neovascularization. The data set is described as above. The class given is in vivo, C57Bl/6 mice.
In data set [4] the test system is corneal neovascularization. As to the kind of experiment: b-FGF pellet implantation angiogenesis model (mouse corneal micropocket). The class given is in vivo, C57Bl/6 mice. The note with it: 1 mg/ml topical, 4 times per day for 1 week. Here is the method:
Male 6- to 8-week-old C57Bl/6 mice (Taconic Farms, Germantown, N.Y.) were used in experiments for Examples 1 to 3. Male 6- to 8-week-old C57Bl/6 mice (Charles River Lab, Calco, Milan, Italy) were used in experiments for Examples 4-6. Prior to pellet implantation or caustication, animals were anesthetized by intraperitoneal injection of ketamine (120 mg/kg) and xylazine (20 mg/kg) before any surgery.
b-FGF Pellet Implantation Angiogenesis Model
This model was employed to assess the effect of pharmaceutically active substances on the angiogenesis component of CNV.
Sustained release b-FGF micropellets (40 ng/pellet) were prepared as described in Azar D T, Am Ophthalmol Soc 2006; 104:264-302.
Briefly, the pellets were implanted through half thickness linear incisions at the center of cornea using a disposable 30 degrees microknife (F.S.T., Foster City, Calif., USA). Lamellar pocket incisions were then made parallel to the corneal plane using a Von Graefe knife (F.S.T., Foster City, Calif., USA) and advanced to the temporal limbus at lateral canthal area. The pellets were positioned into the pocket 1.0 mm apart from the limbal vascular arcade in temporal side, and tetracycline ophthalmic ointment was applied to the eye after pellet implantation to prevent post surgical infections.
as §1
Both slit-lamp and fluorescence microscopy pictures were qualitatively compared for the amount of corneal neovascularization. Gross anatomical alterations such as disruption of epithelial layer, inflammatory cell infiltration, or endothelial cell loss were searched in hematoxylin-eosin cross sections. […]
Following b-FGF pellet implantation, neovessels are expected to grow from the limbal vessels (i.e. from the periphery of the cornea), towards the pellet, which is placed in the avascular cornea. The extent of neovascularisation is then evaluated.

A further data set deals with healthy cornea. As to the kind of experiment: Toxicity following topical application in healthy eyes. The class given is in vivo, C57Bl/6 mice. On the procedure: as §1, §2
Fosaprepitant toxicity was tested on the healthy cornea by administering to 3 healthy C57Bl/6 mice fosaprepitant (purchased from Universal Drug Store, Canada and diluted as per technical sheet instructions with 0.9% NaCl solution to reach a final concentration of 1 mg/ml) at the concentration of 1 mg/ml in the conjunctival sac 4 times per day for 1 week. In vivo corneal biomicroscopy imaging and hematoxylin eosin ocular cross sections were checked as markers for toxicity.

Data set [5] relates to growth of capillary vessels. To be noted: slow release pellets in avascular cornea of rabbits; cited from earlier work.
For a further data set, the system named is endothelial cells. The note with it: in vitro; cited from earlier work.
Data set [6] relates to CNV. The note with it: humans, topical administration; cited from earlier work.
Where [7] appears, read: 1 mg/ml topical, 4 times per day for 1 week, versus placebo.
[8] abbreviates: increasing dose 0.4, 1.6, 6.4 mg/ml topical, 6 times a day for 4 days, Day 4.

Entries after “also recorded” stand apart in the source; their conditions may differ. Ends that are not written are not given here.

On to `CC(=O)OCC(=O)[C@@]1(O)CC[C@H]2[C@@H]3CCC4=CC(=O)CC[C@]4(C)C3=CC[C@@]21C` [anecortave acetate], for which, in the data set on CNV [1], the “efficacy in animal models of CNV” value was “effective”.
On to `Cc1ccccc1-c1cc(N2CCOCC2)ncc1N(C)C(=O)C(C)(C)c1cc(C(F)(F)F)cc(C(F)(F)F)c1` [befetupitant], for which, in data set [2] (0.4 mg/ml topical, 3 times a day for 9 days, compared to vehicle (DMSO)), the “Corneal Neovascular Index” value is given as “statistically significant reduction”. Also, in data set [2], the corneal perforation entry is “reduced”; the corneal transparency result is “increased”; the “incidence of symblepharon and ankyloblepharon” value was “reduced”; the lid anatomy result is reported as “appeared better preserved”. Besides, in data set [3] (1.6 mg/ml topical, 3 times a day for 9 days, compared to vehicle (DMSO)), the “Corneal Neovascular Index” value is given as “statistically significant reduction”. The “corneal neovessels (CD31/PECAM-1)” value in data set [3] (increasing doses 0.4, 1.6 mg/ml in DMSO, topical, 3 times a day for 9 days, day 9) is listed as “reduced; also recorded: reduces corneal neovascularization”.
As to `C[C@@H](O[C@H]1OCCN(Cc2nc(O)n(P(=O)(O)O)n2)[C@H]1c1ccc(F)cc1)c1cc(C(F)(F)F)cc(C(F)(F)F)c1` [fosaprepitant, [3-{[(2R,3S)-2-[(1R)-1-[3,5-bis(trifluoromethyl)phenyl]ethoxy]-3-(4-fluorophenyl)morpholin-4-yl]methyl}-5-oxo-2H-1,2,4-triazol-1-yl]phosphonic acid], the “length of the vessels” value in data set [4] (slit lamp, 7 days after implantation) was “appeared reduced”. For the same molecule, the “area of normally avascular cornea invaded by neovessels” value in data set [4] (versus placebo) and in data set [2] (setting [7]) was “smaller” each time. For the same molecule, the “density of vascular ramifications (number of vascular branches per surface unit)” value in data set [4] (versus placebo) and in data set [3] (setting [7]) was “reduced” throughout. In data set [4] (conjunctival sac, 7 days after implantation, versus placebo (PBS)), the “corneal neovascularization (slit lamp, CD31/PECAM-1 whole mounts)” value is reported as “less neovascularization; also recorded: reduces corneal neovascularization”. In addition, in the data set with healthy cornea (1 mg/ml topical, 4 times per day, up to 7 days, healthy corneas), the “alteration of corneal epithelium, stroma or endothelium at slit lamp observation” value is “No alteration”. Moreover, the “hematoxylin-eosin staining of eyeball cross-sections (epithelium, stroma, endothelium)” value in the data set with healthy cornea (1 mg/ml topical, 4 times per day, 7 days) is given as “no anatomical alteration was detected”. Moreover, the “toxicity to the cornea” value in the data set with healthy cornea (topical application (FIG. 3)) is given as “not toxic”. For the same molecule, in data set [3] (1 mg/ml topical, 4 times per day for 1 week, 7 days after caustication, versus placebo (PBS)), the “corneal neovascularization (slit lamp, epifluorescent microscopy)” value was “remarkably reduced; also recorded: reduces corneal neovascularization”. Besides, in data set [3] (1 mg/ml topical, 4 times per day for 1 week, versus placebo-treated corneas), the corneal transparency entry is on record as “much improved”.
Regarding `COc1ccccc1CN(C[C@@H](Cc1c[nH]c2ccccc12)NC(=O)CN1CCC(N2CCCCC2)CC1)C(C)=O` [lanepitant], the “Neovascular Area Index (NV Index)” value in data set [2] (6.4 mg/ml topical, 6 times a day for 4 days, compared to vehicle) was “statistically significant reduction”. The “anatomy of the eyelids” value in data set [2] (0.4, 1.6, 6.4 mg/ml topical, 6 times a day for 4 days, Day 4, versus vehicle) is recorded as “appeared better preserved”. In data set [2] (increasing dose 0.4, 1.6, 6.4 mg/ml topical, 6 times a day for 4 days from day of injury, Day 4, versus vehicle (PBS)), the corneal transparence result is “increased corneal transparence”. In data set [2] (setting [8]), the “Neovascular Area Index (NV Index)” value is “progressively reduced” and the “corneal neovessels (CD31/PECAM-1)” value is given as “progressively reduced; also recorded: reduces corneal neovascularization”. Further, the “effect on neovascularization compared to the same dose administered after the tissue injury” value in data set [2] (pre-treatment 1.6 mg/ml versus 1.6 mg/ml started on day of injury) is on record as “increased effect”. For the same molecule, in data set [2], the corneal perforation entry was “reduced”; the corneal transparency result is given as “increased”; the “incidence of symblepharon and ankyloblepharon” value is “reduced”; the lid anatomy entry is listed as “appeared better preserved”. In addition, in data set [3] (pre-treatment: 1.6 mg/ml topical, 6 times a day from before the injury through Day 3, day 4), the “Cornea Neovascular Index” value is on record as “statistically significant reduction”. For the same molecule, the corneal neovascularization result in data set [3] (pre-treatment: 1.6 mg/ml topical, 6 times a day from before the injury through Day 3, day 4, versus vehicle) is reported as “appeared reduced; also recorded: reduces corneal neovascularization”.
On to “Substance P: C-amidated decapeptide of the tachykinin family; principal receptor NK-1 (RPKPQQFFGLM-NH2; UniProt P20366 58-68, looked up)”, for which the “vessel growth in the cornea” value in data set [5] is reported as “induced a marked neovascularization”. Besides, the “proliferation of endothelial cells” value in the data set with endothelial cells is listed as “increased proliferation”.
For “bevacizumab: anti-VEGF monoclonal antibody”, the “inhibiting CNV” value in the data set on CNV [6] was “some effect”.
